# Measured values published in patent US20140088144A1, “INHIBITING MICROBIAL INFECTIONS” (THE UNIVERSITY OF KANSAS, priority 2012, published 2014).
# pIC50: −log10 of the molar value.
# Experiments:
# icsA = assay: Shigella gene expression qRT-PCR, icsA; format: cell-based, S. flexneri; details: for Average ΔΔCt / Ct / RQ (2^−ΔΔCt) / ΔΔCt^1 (normalized to gapA) / ΔΔCt^2 (normalized to rrsA): icsA, example data
# Method: Real-time quantitative reverse transcription PCR (qRT-PCR) was performed to test the effects of SE-1 on the expression of the VirF regulated genes virB, icsA, icsB and ipaB. The gapA and rrsA transcripts were used as internal controls. These are constitutively expressed Shigella genes commonly used to normalize mRNA levels. S. flexneri strain SME4331, which carries a null mutation in ipgD (ipgD), was grown at 30° C. overnight in TSB with ampicillin, diluted into the same medium to an OD600 of ˜0.1, and 1 ml aliquots further grown at 30° C. (DMSO only) or at 37° C. (SE-1 at 20 or 40 μM, or DMSO only, all 0.3% DMSO). Cells were grown to an OD600 of 1.0 (˜2.5 h) and RNA was isolated using an RNeasy MiniElute Cleanup Kit (Qiagen, Germantown, Md.), with DNA contamination eliminated using a Turbo DNase Kit (Ambion, Austin, Tex.). Complementary DNA (cDNA) was synthesized by random priming using a cDNA Reverse Transcription Kit (Applied Biosystems, Foster City, Calif.). Primers were tested for PCR specificity using genomic DNA template to ensure a single amplicon of the expected size for each primer pair, and validated using 5-fold dilutions of cDNA (2000 to 0.0256 ng) to ensure a linear plot of cycle threshold (Ct) versus cDNA concentration. Validated primer sets were used to test mRNA profiles in reactions that contained 10 ng of cDNA, 10 μl of SYBR green master mix (Applied Biosystems), specific primers (0.5 μM each) and water to a final volume of 20 μl, using a Step One Plus Real-Time PCR System (Applied Biosystems). The data was analyzed using the 2^−ΔΔCt method, and also by Applied Biosystems real-time analysis software. […] In brief, ΔΔCt values [ΔΔCt=(Ct,Target−Ct,Internal Control)SE-1−(Ct,Target−Ct,Internal Control)no SE-1] were separately obtained for each sample relative to two internal controls, gapA and rrsA. The ΔΔCt values relative to the two internal controls for each sample were averaged and then used to calculate the relative expression levels (2^−ΔΔCt). As a control, we also normalized each internal control to the other internal control. Control reactions used templates generated without reverse transcriptase to ensure low genomic DNA contamination. To ensure that products were not likely to be due to primer dimer artifacts, additional control samples were performed in which reaction mixtures contained primers alone (no template).
# MBP-VirF = target: T1, MBP-VirF (Shigella flexneri, UniProt P0A2T1); assay: Fluorescence-based thermal shift assay (Sypro Orange), VirF; format: binding
# T1 construct: made in house; host or cells: E. coli KS 1000, plasmid pMALvirF
# Method: Binding of SE-1 to purified VirF was tested by comparing the VirF melting temperature (Tm) in the absence and presence of SE-1 using a thermal shift assay with the fluorescent dye Sypro Orange (Molecular Probes). This method is also known as differential scanning fluorimetry or DSF. As a control, we tested binding of SE-1 to the purified, unrelated, MBP-NS1-NTD protein (greater than 95% pure). […] The reactions were carried out in 0.1 ml PCR low profile 8-tube strips with optically clear flat caps (USA Scientific) in a StepOnePlus™ Real-Time PCR System (Applied Biosystems), heating from 25 to 99° C. in increments of 0.8° C. The data was analyzed using the Boltzmann sigmoidal model in the software Prism (GraphPad). Data points before and after the fluorescence intensity minimum and maximum, respectively, were excluded from fitting. The ΔTm values are the average of three independent experiments with two replicates in each experiment. A single, representative, experiment is shown.
# RhaS = RhaS (Escherichia coli, UniProt P09377); assay: In vivo dose-response, RhaS-activated rhaB-lacZ reporter fusion (β-galactosidase); format: cell-based, E. coli; details: full-length RhaS
# Description: For dose-response studies, a rhaB-lacZ reporter strain was designed that allowed IPTG induction of RhaS or RhaS(163-278) expression from pHG165 (and thus rhaB-lacZ expression). The strain was constructed by introducing malP::lacIq into SME3000 via phage P1vir-mediated generalized transduction. First, SME3000 was transduced with Δcrp-3 zhc-511::Tn10 from SME1403, selecting for tetracycline resistance and screening for sorbitol deficiency (indicating Δcrp) using MacConkey sorbitol. SME3000 Acrp-3 zhc-511::Tn10 was transduced with crp^+ malP::lacI^q from SG22166, selecting for growth on minimal sorbitol and screening for maltose deficiency (indicating malP::lacI^q) using MacConkey maltose. Finally, SME3000 malP::lacI^q zhc-511::Tn10 was transduced with recA::cat from SME1048 by selecting for chloramphenicol resistance, to make strain SME3632.
# The top hit identified in the screen was 1-ethyl-4-(nitromethyl)-3-quinolin-2-yl-4H-quinoline, Compound 2. The closely related compound, Compound 1,1-butyl-4-(nitromethyl)-3-quinolin-2-yl-4H-quinoline, was obtained from eMolecules, Inc. (Solana Beach, Calif.; catalog #3761-0013) or Princeton BioMolecular Research (Princeton, N.J.; catalog #OSSL—051168), with the Princeton named used here. […] Lysis/ONPG buffer (50 μL, as in Primary Screen) was added to each well and the plate was immediately placed into a PowerWave XS plate reader (BioTek Instruments, Inc., Winooski, Vt.), set to read the OD420 of each well every 15 min for 4 hr. […] Due to differences in kinetics of lacZ reporter expression, the rhaB-lacZ strains were analyzed at 4 hours and the hts-lacZ strain was analyzed at 1 hr. Percent activity was calculated for each condition as described above, using the single time point with appropriate OD420 levels for each strain. […] IC50 and maximal inhibition values were calculated using the XLfit add-in for Microsoft Excel (ID Business Solutions, Guildford, UK), and graphs were drawn using Prism (GraphPad, La Jolla, Calif.).
# T1 sequence (P0A2T1 whole entry): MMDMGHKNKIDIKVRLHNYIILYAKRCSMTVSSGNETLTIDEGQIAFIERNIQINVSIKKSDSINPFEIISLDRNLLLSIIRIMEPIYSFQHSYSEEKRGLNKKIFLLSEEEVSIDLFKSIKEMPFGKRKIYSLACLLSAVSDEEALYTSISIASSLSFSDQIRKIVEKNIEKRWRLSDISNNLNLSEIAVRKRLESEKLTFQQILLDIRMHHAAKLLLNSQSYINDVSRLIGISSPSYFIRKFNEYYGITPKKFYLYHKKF
# Sequence of RhaS (P09377 whole entry, the tested form may be a part): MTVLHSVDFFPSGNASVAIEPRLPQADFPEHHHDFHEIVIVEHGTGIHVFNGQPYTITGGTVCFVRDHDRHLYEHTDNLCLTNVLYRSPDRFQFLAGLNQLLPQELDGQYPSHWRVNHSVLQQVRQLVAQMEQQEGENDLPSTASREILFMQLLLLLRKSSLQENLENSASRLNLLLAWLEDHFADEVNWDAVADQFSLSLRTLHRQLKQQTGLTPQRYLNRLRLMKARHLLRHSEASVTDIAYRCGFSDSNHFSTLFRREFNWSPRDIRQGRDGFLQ
compound,measurement,setting,value
"CCCCN1C=C(c2ccc3ccccc3n2)C(C[N+](=O)[O-])c2ccccc21 (stereo not shown) [Compound 1, 1-butyl-4-(nitromethyl)-3-quinolin-2-yl-4H-quinoline]",icsA expression level,"icsA; 20 μM inhibitor, 37° C.",essentially unchanged
same,icsA expression level,"icsA; 40 μM inhibitor, P<0.05",significantly reduced
same,Average ΔΔCt,icsA; SE-1 20 μM,0.04
same,Ct,icsA; SE-1 20 μM,27.88
same,RQ (2^−ΔΔCt),icsA; SE-1 20 μM,0.97
same,ΔΔCt^1 (normalized to gapA),icsA; SE-1 20 μM,−0.46
same,ΔΔCt^2 (normalized to rrsA),icsA; SE-1 20 μM,0.54
same,Average ΔΔCt,icsA; SE-1 40 μM,1.17
same,Ct,icsA; SE-1 40 μM,28.59
same,RQ (2^−ΔΔCt),icsA; SE-1 40 μM,0.44
same,ΔΔCt^1 (normalized to gapA),icsA; SE-1 40 μM,0.82
same,ΔΔCt^2 (normalized to rrsA),icsA; SE-1 40 μM,1.52
same,ΔTm for VirF,MBP-VirF; 40 μM SE-1,0.15 °C
same,increase of Tm of VirF (ΔTm),"MBP-VirF; 80 μM SE-1, 1 μM VirF",0.61 °C
same,inhibition of the RhaS-activated fusion,RhaS; rhaB-lacZ,fully inhibit expression
same,pIC50,"RhaS; rhaB-lacZ (SME3634), read-out: IC50, expression of the RhaS-activated fusion",~4.52
